Source: ChEMBL document CHEMBL1201862, “PubChem BioAssay data set” (2004)
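Growth conditions: 96-well plates. Treatment: test compound, 48 hours, 5 concentrations. Analysis: linear interpolation between bracketing concentrations; unreached endpoints set to highest concentration. The concentration for 50% growth inhibition is given as GI50.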 The source made the active and inactive calls. Cut-off read from the data, not from the text of the source: active = GI50 up to about 1.1 µM and inactive = higher.

Legend:
Assay in all cases: inhibition of tumour cell growth, NCI panel, 48 h
A498 = test system: A498
EKVX = test system: EKVX
HCT-116 = test system: HCT-116
HT-29 = test system: HT-29
K562 = test system: K562
KM-20L2 = test system: KM-20L2
NCI-H23 = test system: NCI-H23
OVCAR-5 = test system: OVCAR-5
SK-MEL-28 = test system: SK-MEL-28
SW-620 = test system: SW-620
UACC-62 = test system: UACC-62
UO-31 = test system: UO-31
HOP-62 = test system: HOP-62
NCI-H522 = test system: NCI-H522
SNB-75 = test system: SNB-75
TK-10 = test system: TK-10
DU-145 = test system: DU-145
MDA-MB-435 = test system: MDA-MB-435
MDA-N = test system: MDA-N
PC-3 = test system: PC-3

Measured: GI50

Cc1cc(N(CCC#N)CCC#N)ccc1/C=C(\NC(=O)/C=C/c1ccccc1)NC(=O)Nc1ccccc1C
inactive: A498 65.3 µM | EKVX 86.1 µM | HCT-116 > 100 µM | HT-29 > 100 µM | K562 > 100 µM | KM-20L2 > 100 µM | NCI-H23 58.7 µM | OVCAR-5 > 100 µM | SK-MEL-28 > 100 µM | SW-620 > 100 µM | UACC-62 46.1 µM | UO-31 > 100 µM

O=C1C(Cl)N(c2c(Cl)cccc2Cl)C1c1c[nH]c2ccccc12 (stereo not drawn)
inactive: EKVX > 100 µM | HCT-116 > 100 µM | HOP-62 > 100 µM | HT-29 > 100 µM | K562 > 100 µM | KM-20L2 > 100 µM | NCI-H23 > 100 µM | NCI-H522 > 100 µM | OVCAR-5 > 100 µM | SK-MEL-28 > 100 µM | SNB-75 > 100 µM | SW-620 > 100 µM | TK-10 > 100 µM | UACC-62 > 100 µM | UO-31 > 100 µM

O=C(Cc1ccccc1)NN1C(=O)C(Cl)C1c1ccccc1 (stereo not drawn)
inactive: EKVX > 100 µM | HCT-116 > 100 µM | HOP-62 > 100 µM | HT-29 > 100 µM | K562 37.9 µM | KM-20L2 > 100 µM | NCI-H23 61.7 µM | NCI-H522 2.05 µM | OVCAR-5 > 100 µM | SK-MEL-28 > 100 µM | SNB-75 55.7 µM | SW-620 > 100 µM | TK-10 > 100 µM | UACC-62 77.4 µM | UO-31 88.7 µM

CC1=C(Oc2ccccc2)C(CCC(=O)O)c2c(O)cc(Cl)c(O)c21 (stereo not drawn)
inactive: A498 > 100 µM | EKVX 71.9 µM | HCT-116 > 100 µM | HOP-62 > 100 µM | K562 > 100 µM | KM-20L2 > 100 µM | NCI-H23 > 100 µM | NCI-H522 > 100 µM | SK-MEL-28 > 100 µM | SW-620 > 100 µM | TK-10 > 100 µM | UO-31 > 100 µM

O=C(O)CC(Cc1ccc2c(c1)OCO2)C(=O)O (stereo not drawn)
inactive: A498 > 100 µM | DU-145 > 100 µM | EKVX > 100 µM | HCT-116 > 100 µM | HOP-62 > 100 µM | HT-29 > 100 µM | K562 > 100 µM | MDA-MB-435 > 100 µM | MDA-N > 100 µM | NCI-H23 > 100 µM | NCI-H522 > 100 µM | OVCAR-5 > 100 µM | PC-3 > 100 µM | SK-MEL-28 > 100 µM | SNB-75 > 100 µM | SW-620 > 100 µM | TK-10 > 100 µM | UACC-62 > 100 µM | UO-31 > 100 µM
